Tests used:
[1] = in vivo; cited from earlier work
[2] = test system: rat oligodendrocyte progenitor cells; assay: Promotive activity of rat oligodendrocyte progenitor cell differentiation (MBP immunostaining); type: cell-based, SD rats; details: vitamin D derivative 2 μM, T3 30 nM, cultured for 4 days
Method: The promotive activity of oligodendrocyte progenitor cell (OPC) differentiation of the vitamin D derivatives was evaluated by immunostaining of myelin basic protein (MBP).
Subsequently, oligodendrocyte progenitor cell separation medium was added to the flask, and the mixture was similarly shaken for about 22 hours (37° C., 200 rpm), and the supernatant was collected to prepare oligodendrocyte progenitor cells.
After cell seeding, a solution of the test compound or a solution prepared from DMSO with a differentiation medium were added to the cells such that the DMSO concentration in the wells was 0.1%. The cells were cultured for 4 days.

[3] = Evaluation of brain penetration in mice (single oral dose, plasma and brain level by LC/MS/MS); type: in vivo, C57BL/6J mice; details: mean ± S.D.
Method: The administration solution was administered orally to C57BL/6J mice (8 weeks old, male, n=3) at a single dose (1 mg/kg). Mice were euthanized at 6 points of 0.25, 0.5, 1, 2, 4, and 8 hours after administration, and plasma and brain sampling were performed. After preparing a homogenate from the collected brain using Tissue Lyser II (QIAGEN #85300), acetonitrile was added to the homogenate and the homogenate was centrifuged (TOMY DIGITAL BIOLOGY MX-307, 12000 rpm, 5 minutes) to extract the administered test compound contained in the brain. Similarly, the plasma was subjected to addition of acetonitrile and centrifugal separation to extract the administered test compound contained in the plasma. Each extracted sample was subjected to measurement of the concentration of administered test compound using LC/MS/MS (SHIMADZU UFLC/MS/MS (8050)).
The administration solution was administered orally to C57BL/6J mice (8 weeks old, male, n=3) at a single dose (0.2 mg/kg). Mice were euthanized at 6 points of 0.25, 0.5, 1, 2, 4, and 8 hours after administration, and plasma and brain sampling were performed. After preparing a homogenate from the collected brain using Tissue Lyser II (QIAGEN #85300), acetonitrile was added to the homogenate and the homogenate was centrifuged (TOMY DIGITAL BIOLOGY MX-307, 12000 rpm, 5 minutes) to extract the administered compound contained in the brain. Similarly, the plasma was subjected to addition of acetonitrile and centrifugal separation to extract the administered test compound contained in the plasma. Each extracted sample was subjected to measurement of the concentration of administered test compound using LC/MS/MS (SHIMADZU UFLC/MS/MS (8050)).

[4] = Test 1, 1 mg/kg single oral dose

Row | Compound | Brain level at the time of brain Cmax [3, 4] | Average value (mean) of the ratio (the number of MBP-positive cells/the number of Hoechst33342-positive cells) ([2]; Test 1) | other results
1 | C=C1/C(=C\C=C2/CCC[C@]3(C)[C@@H]([C@H](C)CCCC(C)(C)O)CC[C@@H]23)C[C@@H](O)C[C@@H]1O [1α,25-dihydroxyvitamin D3] | – | – | ratio of concentration in brain/concentration in blood [1]: 0.007±0.003
2 | C[C@H](CN1CC[C@H](C(F)F)C1)[C@H]1CC[C@H]2/C(=C/C=C3C[C@@H](O)C[C@H](O)C3)CCC[C@]12C [Compound (A), (1R,3R)-5-(2-((1R,3aS,7aR,E)-1-((S)-1-((S)-3-(difluoromethyl)pyrrolidin-1-yl)propan-2-yl)-7a-methyloctahydro-4H-inden-4-ylidene)ethylidene)cyclohexane-1,3-diol] | 529 ± 53 pmol/g | 0.47 | –
3 | C[C@H](CN1CC[C@@H](C(F)F)C1)[C@H]1CC[C@H]2/C(=C/C=C3C[C@@H](O)C[C@H](O)C3)CCC[C@]12C [Compound (B), (1R,3R)-5-(2-((1R,3aS,7aR,E)-1-((S)-1-((R)-3-(difluoromethyl)pyrrolidin-1-yl)propan-2-yl)-7a-methyloctahydro-4H-inden-4-ylidene)ethylidene)cyclohexane-1,3-diol] | 384 ± 40 pmol/g | 0.38 | –
4 | C[C@H](CN1CCOCC1(C)C)[C@H]1CC[C@H]2/C(=C/C=C3C[C@@H](O)C[C@H](O)C3)CCC[C@]12C [Compound (F), (1R,3R)-5-(2-((1R,3aS,7aR,E)-1-((S)-1-(3,3-dimethylmorpholino)propan-2-yl)-7a-methyloctahydro-4H-inden-4-ylidene)ethylidene)cyclohexane-1,3-diol] | – | – | Average value (mean) of the ratio (the number of MBP-positive cells/the number of Hoechst33342-positive cells) ([2]; Test 3): 0.50; Brain level at the time of brain Cmax ([3]; Test 2, 0.2 mg/kg single oral dose): 137.8 ± 11.5 pmol/g

Continued, in another order:

Row | Brain level at the time of brain Cmax [3, 4] | Compound | Average value (mean) of the ratio (the number of MBP-positive cells/the number of Hoechst33342-positive cells) ([2]; Test 1) | other results
5 | 562 ± 50 pmol/g | C[C@H](CN1CC[C@@H](C(C)(F)F)C1)[C@H]1CC[C@H]2/C(=C/C=C3C[C@@H](O)C[C@H](O)C3)CCC[C@]12C [Compound (C), (1R,3R)-5-(2-((1R,3aS,7aR,E)-1-((S)-1-((R)-3-(1,1-difluoroethyl)pyrrolidin-1-yl)propan-2-yl)-7a-methyloctahydro-4H-inden-4-ylidene)ethylidene)cyclohexane-1,3-diol] | 0.57 | –
6 | 80 ± 9 pmol/g | C[C@H](CN1CC[C@@H](CC(F)F)C1)[C@H]1CC[C@H]2/C(=C/C=C3C[C@@H](O)C[C@H](O)C3)CCC[C@]12C [Compound (D), (1R,3R)-5-(2-((1R,3aS,7aR,E)-1-((S)-1-((S)-3-(2,2-difluoroethyl)pyrrolidin-1-yl)propan-2-yl)-7a-methyloctahydro-4H-inden-4-ylidene)ethylidene)cyclohexane-1,3-diol] | – | Average value (mean) of the ratio (the number of MBP-positive cells/the number of Hoechst33342-positive cells) ([2]; Test 2): 0.53
7 | 595 ± 23 pmol/g | C[C@H](CCN1CCOCC1)[C@H]1CC[C@H]2/C(=C/C=C3C[C@@H](O)C[C@H](O)C3)CCC[C@]12C [Compound (E), (1R,3R)-5-(2-((1R,3aS,7aR,E)-7a-methyl-1-((R)-4-morpholinobutane-2-yl)octahydro-4H-inden-4-ylidene)ethylidene)cyclohexane-1,3-diol] | – | Average value (mean) of the ratio (the number of MBP-positive cells/the number of Hoechst33342-positive cells) ([2]; Test 2): 0.36

— patent publication US20250162988A1, “CRYSTALS OF VITAMIN D DERIVATIVE OR CRYSTALS OF SOLVATE THEREOF” (TEIJIN PHARMA LIMITED, priority 2022, published 2025)
